# According to ChEMBL document CHEMBL1133393, “Synthesis of 8-chloro-benzo[c]quinolizin-3-ones as potent and selective inhibitors of human steroid 5alpha-reductase 1” (Bioorg Med Chem Lett, 2000):
# pIC50: −log10 of the molar value.
# Target: T1, 3-oxo-5-alpha-steroid 4-dehydrogenase 1 (Homo sapiens, UniProt P18405)
# T1 sequence (P18405 whole entry): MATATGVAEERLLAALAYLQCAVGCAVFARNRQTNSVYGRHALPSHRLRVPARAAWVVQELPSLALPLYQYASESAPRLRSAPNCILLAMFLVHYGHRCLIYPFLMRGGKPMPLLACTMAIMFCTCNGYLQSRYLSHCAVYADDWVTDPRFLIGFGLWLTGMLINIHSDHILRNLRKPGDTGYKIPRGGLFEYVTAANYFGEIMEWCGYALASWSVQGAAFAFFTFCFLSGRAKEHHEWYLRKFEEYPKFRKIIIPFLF
# Assay: Inhibition of human Steroid 5-alpha-reductase type I
row,pIC50,Structure (SMILES)
1,7.84,C[C@@H]1CC2=CC(=O)CCN2c2ccc(Cl)cc21
2,7.31,O=C1C=C2CCc3cc(Cl)ccc3N2CC1
3,6.73,C[C@@H]1C[C@H]2CC(=O)C=CN2c2ccc(Cl)cc21

# More lines, now with the values behind:
row,Structure (SMILES),pIC50
1,O=C1C=CN2c3ccc(Cl)cc3CC[C@H]2C1,6.34
2,C[C@H]1Cc2cc(Cl)ccc2N2C=CC(=O)C[C@H]12,5.04
3,C[C@H]1Cc2cc(Cl)ccc2N2CCC(=O)C=C12,6.46
4,CC(C)CCCC(C)[C@H]1CCC2C3C(CC[C@@]21C)[C@@]1(C)CCC(=O)N(C)C1C[C@@H]3C (some centres not stated),9.30
